Assay results: US20070010518A1, “Method for administering levosimendan” (priority 2005, published 2007)

Legend:
Type in all cases: in vivo, human
[1] = test system: patients with New York Heart Association functional class II to III heart failure; experiment: Plasma natriuretic peptide (NT-proANP, NT-proBNP) measurements in double-blind, placebo-controlled study
Protocol: (§1) A double-blind, placebo-controlled, parallel group, single center study in patients with New York Heart Association functional class II to III heart failure was conducted. Patients were randomised in 1:1 ratio to receive either levosimendan or placebo. Study drug administration was initiated with a loading dose of 12 μg/kg of levosimendan or placebo delivered over 10 minutes. This was followed by a continuous infusion of 0.1 μg/kg/min for 50 minutes. If the dose was well tolerated the infusion rate was increased to 0.2 μg/kg/min for a further 23 hours. After the study drug was started, the hemodynamic assessments were repeated at 30 minutes, at two and six hours. The non-invasive hemodynamic assessments were repeated at 24-hours. Follow-up visits took place at 2, 3, 5, 7, 9 and 14 days from the beginning of the study. On these visits echocardiographic measurements were performed and blood pressure and heart rate were measured.
Blood samples (4 ml) for natriuretic peptide (NT-proANP, NT-proBNP) measurements were taken into pre-cooled EDTA tubes. Samples were taken at baseline (0-sample) and on the first study day 30 min, 2 h, 6h and 24 h after the start of the infusion and in the mornings of days 2, 3, 5, 7, 9 and 14 after the start of the study drug infusion.

[2] = test system: patients with New York Heart Association functional class II to III heart failure; experiment: Doppler echocardiographic hemodynamic measurements in double-blind, placebo-controlled study
Protocol: as §1
An Acuson Sequoia ultrasound system with 2.5-3.75 MHz probes was used for the Doppler echocardiographic measurements. Blood flow velocity curves were recorded at a sweep speed of 100 mm/s. Left ventricular ejection fraction was assessed by two-dimensional apical two- and four-chamber views with use of modified Simpson rule. Mitral flow velocity was assessed by pulsed wave Doppler from the apical four-chamber view by placing a 3-mm sample volume between the tip of the mitral leaflets in diastole. The following measurements were made over five consecutive cycles: maximal early and maximal late diastolic velocity and their ratio, duration of the late diastolic velocity wave, deceleration time and deceleration rate of early diastolic velocity. Peak velocities were defined as the highest point of the spectrum.

[3] = test system: patients with New York Heart Association functional class II to III heart failure; experiment: Invasive hemodynamic assessments in double-blind, placebo-controlled study
Protocol: as §1

[4] = after start of 24-hour infusion
[5] = after starting the 24-hour infusion
[6] = echocardiography, 24-hour infusion

C[C@@H]1CC(=O)NN=C1c1ccc(NN=C(C#N)C#N)cc1 [levosimendan, (−)-enantiomer of [[4-(1,4,5,6-tetrahydro-4-methyl-6-oxo-3-pyridazinyl)phenyl]hydrazono]propanedinitrile]
Duration of treatment effect on plasma NT-proANP estimated by a linear model ([1]; 24-hour infusion): 16 days | Duration of treatment effect on plasma NT-proBNP estimated by a linear model ([1]; 24-hour infusion): 12 days | Day at which plasma NT-proANP level reached its lowest value [1, 4]: 3 days | Day at which plasma NT-proBNP level reached its lowest value [1, 4]: 2 days | Maintenance of beneficial hemodynamic and neurohormonal effects ([2]; after levosimendan administration (24-hour infusion)): maintained up to two weeks | Time at which echocardiographically estimated PCWP reached its lowest value [2, 5]: 2 days | Time of maximal effects on hemodynamic parameters [2, 5]: 1 to 3 days | Linearly estimated duration of an increase in CO [2, 6]: 13 days | Linearly estimated duration of the decrease in PCWP [2, 6]: 9 days | Time at which highest CO value estimated by echocardiography was detected ([2]; end of the 24-hour infusion): 24 h | Invasively measured cardiac output (CO) ([3]; at six hours, loading dose 12 μg/kg, then infusion 0.1-0.2 μg/kg/min): 5.4 L/min | Invasively measured cardiac output (CO) ([3]; baseline, levosimendan group): 4.3 L/min | PCWP ([3]; baseline, levosimendan treatment): 20 mmHg | PCWP ([3]; in response to levosimendan treatment, loading dose 12 μg/kg, then infusion 0.1-0.2 μg/kg/min): 15 mmHg
